*1 amine or outer side, *2 acyl side, *3 side chain or, on linkers, in order; H or OH if unused. Where a SMILES comes first, the peptide text is derived from it. Side-chain parts run from the residue outwards. [ ]: non-standard residue; d: D form. The star is where a group is joined. C20 diacid = O=C(O)CCCCCCCCCCCCCCCCCCC(=O)*; C18 diacid = O=C(O)CCCCCCCCCCCCCCCCC(=O)*; γGlu = O=C(O)[C@H](CCC(=O)[*:2])N[*:1]; 4Pal = N[C@@H](Cc1ccncc1)C(=O)O; αMeL = CC(C)C[C@](C)(N)C(=O)O; Orn = NCCC[C@H](N)C(=O)O; AEEA = NCCOCCOCC(=O)O; Aib = CC(C)(N)C(=O)O
Target: T1, human GLP-1R (Homo sapiens, UniProt P43220)
T1 construct: expressed in transfected cells; crude membranes
T1 sequence (P43220 24-463): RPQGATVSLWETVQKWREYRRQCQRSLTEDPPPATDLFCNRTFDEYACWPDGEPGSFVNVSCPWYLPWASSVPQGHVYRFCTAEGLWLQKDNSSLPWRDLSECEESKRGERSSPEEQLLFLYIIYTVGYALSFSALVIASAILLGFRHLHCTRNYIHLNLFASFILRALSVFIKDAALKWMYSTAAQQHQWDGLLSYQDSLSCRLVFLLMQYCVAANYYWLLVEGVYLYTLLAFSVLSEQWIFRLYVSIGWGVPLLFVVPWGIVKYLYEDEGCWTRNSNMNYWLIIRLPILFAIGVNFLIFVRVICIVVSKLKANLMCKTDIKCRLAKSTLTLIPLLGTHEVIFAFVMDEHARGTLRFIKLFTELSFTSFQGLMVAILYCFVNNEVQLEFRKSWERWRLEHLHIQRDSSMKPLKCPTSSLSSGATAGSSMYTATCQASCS
Test: [125I]-GLP-1 binding, SPA with WGA beads, 0.1% bacitracin
Conditions: geometric mean, read-out: hGLP1R Ki
Method in brief: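 Binding buffer was 25 mM HEPES pH 7.4 with 2.5 mM CaCl2, 1 mM MgCl2, 0.1% (w/v) bacitracin, 0.003% Tween-20 and EDTA-free protease inhibitors. Four-parameter regression gave IC50, converted to Ki (geometric mean, SEM, n independent days).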

Row | Compound | Ki [nM]
1 | CC[C@H](C)[C@H](NC(=O)[C@H](CCCN)NC(=O)[C@H](CC(=O)O)NC(=O)[C@H](CC(C)C)NC(=O)[C@](C)(CC(C)C)NC(=O)[C@@H](NC(=O)[C@H](CO)NC(=O)[C@H](Cc1ccc(O)cc1)NC(=O)[C@H](CC(=O)O)NC(=O)[C@H](CO)NC(=O)[C@@H](NC(=O)[C@H](Cc1ccccc1)NC(=O)[C@@H](NC(=O)CNC(=O)[C@H](CCC(=O)O)NC(=O)C(C)(C)NC(=O)[C@@H](N)Cc1ccc(O)cc1)[C@@H](C)O)[C@@H](C)CC)[C@@H](C)CC)C(=O)N[C@@H](Cc1c[nH]cn1)C(=O)N[C@@H](CCC(N)=O)C(=O)NC(C)(C)C(=O)N[C@@H](CC(=O)O)C(=O)N[C@@H](Cc1ccccc1)C(=O)N[C@H](C(=O)N[C@@H](CCC(=O)O)C(=O)N[C@@H](Cc1ccc(O)cc1)C(=O)N[C@@H](CCCCNC(=O)COCCOCCNC(=O)COCCOCCNC(=O)CC[C@H](NC(=O)CCCCCCCCCCCCCCCCC(=O)O)C(=O)O)C(=O)N[C@@H](CC(C)C)C(=O)N[C@@H](CCC(=O)O)C(=O)NCC(=O)NCC(=O)N1CCC[C@H]1C(=O)N[C@@H](CO)C(=O)N[C@@H](CO)C(=O)NCC(=O)N[C@@H](C)C(=O)N1CCC[C@H]1C(=O)N1CCC[C@H]1C(=O)N1CCC[C@H]1C(=O)N[C@@H](CO)C(N)=O)C(C)C [Example 103] (H-Y[Aib]EGTFISDYSI[αMeL]LD[Orn]IHQ[Aib]DFVEYK([AEEA-AEEA-γGlu-C18 diacid])LEGGPSSGAPPPS-NH2) | > 913
2 | CC[C@H](C)[C@H](NC(=O)[C@H](Cc1ccccc1)NC(=O)[C@@H](NC(=O)CNC(=O)[C@H](CCC(=O)O)NC(=O)C(C)(C)NC(=O)[C@@H](N)Cc1ccc(O)cc1)[C@@H](C)O)C(=O)N[C@@H](CO)C(=O)N[C@@H](CC(=O)O)C(=O)N[C@@H](Cc1ccc(O)cc1)C(=O)N[C@@H](CO)C(=O)N[C@H](C(=O)N[C@@](C)(CC(C)C)C(=O)N[C@@H](CC(C)C)C(=O)N[C@@H](CC(=O)O)C(=O)N[C@@H](CCCN)C(=O)N[C@@H](CCCCNC(=O)COCCOCCNC(=O)COCCOCCNC(=O)CC[C@H](NC(=O)CCCCCCCCCCCCCCCCCCC(=O)O)C(=O)O)C(=O)N[C@@H](Cc1c[nH]cn1)C(=O)N[C@@H](CCC(N)=O)C(=O)NC(C)(C)C(=O)N[C@@H](CC(=O)O)C(=O)N[C@@H](Cc1ccccc1)C(=O)N[C@H](C(=O)N[C@@H](CCC(=O)O)C(=O)N[C@@H](Cc1ccncc1)C(=O)N[C@@H](CC(C)C)C(=O)N[C@@H](CC(C)C)C(=O)N[C@@H](CCC(=O)O)C(=O)NCC(=O)NCC(=O)N1CCC[C@H]1C(=O)N[C@@H](CO)C(=O)N[C@@H](CO)C(=O)NCC(=O)N[C@@H](C)C(=O)N1CCC[C@H]1C(=O)N1CCC[C@H]1C(=O)N1CCC[C@H]1C(=O)N[C@@H](CO)C(N)=O)C(C)C)[C@@H](C)CC [Example 82] (H-Y[Aib]EGTFISDYSI[αMeL]LD[Orn]K([AEEA-AEEA-γGlu-C20 diacid])HQ[Aib]DFVE[4Pal]LLEGGPSSGAPPPS-NH2) | 388
3 | CC[C@H](C)[C@H](NC(=O)[C@H](Cc1ccccc1)NC(=O)[C@@H](NC(=O)CNC(=O)[C@H](CCC(=O)O)NC(=O)C(C)(C)NC(=O)[C@@H](N)Cc1ccc(O)cc1)[C@@H](C)O)C(=O)N[C@@H](CO)C(=O)N[C@@H](CC(=O)O)C(=O)N[C@@H](Cc1ccc(O)cc1)C(=O)N[C@@H](CO)C(=O)N[C@H](C(=O)N[C@@](C)(CC(C)C)C(=O)N[C@@H](CC(C)C)C(=O)N[C@@H](CC(=O)O)C(=O)N[C@@H](CCC(=O)O)C(=O)N[C@@H](CCCCNC(=O)COCCOCCNC(=O)COCCOCCNC(=O)CC[C@H](NC(=O)CCCCCCCCCCCCCCCCCCC(=O)O)C(=O)O)C(=O)N[C@@H](Cc1c[nH]cn1)C(=O)N[C@@H](CCC(N)=O)C(=O)NC(C)(C)C(=O)N[C@@H](CC(=O)O)C(=O)N[C@@H](Cc1ccccc1)C(=O)N[C@H](C(=O)N[C@@H](CCC(=O)O)C(=O)N[C@@H](Cc1ccncc1)C(=O)N[C@@H](CC(C)C)C(=O)N[C@@H](CC(C)C)C(=O)N[C@@H](C)C(=O)N[C@@H](CCC(N)=O)C(=O)NCC(=O)N1CCC[C@H]1C(=O)N[C@@H](CO)C(=O)N[C@@H](CO)C(=O)NCC(=O)N[C@@H](C)C(=O)N1CCC[C@H]1C(=O)N1CCC[C@H]1C(=O)N1CCC[C@H]1C(=O)N[C@@H](CO)C(N)=O)C(C)C)[C@@H](C)CC [Example 84] (H-Y[Aib]EGTFISDYSI[αMeL]LDEK([AEEA-AEEA-γGlu-C20 diacid])HQ[Aib]DFVE[4Pal]LLAQGPSSGAPPPS-NH2) | 325
4 | CC[C@H](C)[C@H](NC(=O)[C@H](CO)NC(=O)[C@H](Cc1ccc(O)cc1)NC(=O)[C@H](CC(=O)O)NC(=O)[C@H](CO)NC(=O)[C@@H](NC(=O)[C@H](Cc1ccccc1)NC(=O)[C@@H](NC(=O)CNC(=O)[C@H](CCC(=O)O)NC(=O)C(C)(C)NC(=O)[C@@H](N)Cc1ccc(O)cc1)[C@@H](C)O)[C@@H](C)CC)C(=O)N[C@@H](CC(C)C)C(=O)N[C@@H](CC(C)C)C(=O)N[C@@H](CC(=O)O)C(=O)N[C@@H](CCCCN)C(=O)N[C@@H](CCCCNC(=O)COCCOCCNC(=O)COCCOCCNC(=O)CC[C@H](NC(=O)CCCCCCCCCCCCCCCCC(=O)O)C(=O)O)C(=O)N[C@@H](Cc1c[nH]cn1)C(=O)N[C@@H](CCC(N)=O)C(=O)NC(C)(C)C(=O)N[C@@H](CC(=O)O)C(=O)N[C@@H](Cc1ccccc1)C(=O)N[C@H](C(=O)N[C@@H](CCC(=O)O)C(=O)N[C@@H](Cc1ccncc1)C(=O)N[C@@H](CC(C)C)C(=O)N[C@@H](CC(C)C)C(=O)N[C@@H](C)C(=O)NCC(=O)NCC(=O)N1CCC[C@H]1C(=O)N[C@@H](CO)C(=O)N[C@@H](CO)C(=O)NCC(=O)N[C@@H](C)C(=O)N1CCC[C@H]1C(=O)N1CCC[C@H]1C(=O)N1CCC[C@H]1C(=O)N[C@@H](CO)C(N)=O)C(C)C [Example 22] | 388
5 | CC[C@H](C)[C@H](NC(=O)[C@H](CCCCN)NC(=O)[C@H](CC(=O)O)NC(=O)[C@H](CC(C)C)NC(=O)[C@](C)(CC(C)C)NC(=O)[C@@H](NC(=O)[C@H](CO)NC(=O)[C@H](Cc1ccc(O)cc1)NC(=O)[C@H](CC(=O)O)NC(=O)[C@H](CO)NC(=O)[C@@H](NC(=O)[C@H](Cc1ccccc1)NC(=O)[C@@H](NC(=O)CNC(=O)[C@H](CCC(=O)O)NC(=O)C(C)(C)NC(=O)[C@@H](N)Cc1ccc(O)cc1)[C@@H](C)O)[C@@H](C)CC)[C@@H](C)CC)C(=O)N[C@@H](Cc1c[nH]cn1)C(=O)N[C@@H](CCC(N)=O)C(=O)NC(C)(C)C(=O)N[C@@H](CC(=O)O)C(=O)N[C@@H](Cc1ccccc1)C(=O)N[C@H](C(=O)N[C@@H](CCC(=O)O)C(=O)N[C@@H](Cc1ccncc1)C(=O)N[C@@H](CCCCNC(=O)COCCOCCNC(=O)COCCOCCNC(=O)CC[C@H](NC(=O)CCCCCCCCCCCCCCCCCCC(=O)O)C(=O)O)C(=O)N[C@@H](CC(C)C)C(=O)N[C@@H](CCC(=O)O)C(=O)NCC(=O)NCC(=O)N1CCC[C@H]1C(=O)N[C@@H](CO)C(=O)N[C@@H](CO)C(=O)NCC(=O)N[C@@H](C)C(=O)N1CCC[C@H]1C(=O)N1CCC[C@H]1C(=O)N1CCC[C@H]1C(=O)N[C@@H](CO)C(N)=O)C(C)C [Example 109] (H-Y[Aib]EGTFISDYSI[αMeL]LDKIHQ[Aib]DFVE[4Pal]K([AEEA-AEEA-γGlu-C20 diacid])LEGGPSSGAPPPS-NH2) | > 908
6 | CC[C@H](C)[C@H](NC(=O)[C@H](CCCN)NC(=O)[C@H](CC(=O)O)NC(=O)[C@H](CC(C)C)NC(=O)[C@](C)(CC(C)C)NC(=O)[C@@H](NC(=O)[C@H](CO)NC(=O)[C@H](Cc1ccc(O)cc1)NC(=O)[C@H](CC(=O)O)NC(=O)[C@H](CO)NC(=O)[C@@H](NC(=O)[C@H](Cc1ccccc1)NC(=O)[C@@H](NC(=O)CNC(=O)[C@H](CCC(=O)O)NC(=O)C(C)(C)NC(=O)[C@@H](N)Cc1ccc(O)cc1)[C@@H](C)O)[C@@H](C)CC)[C@@H](C)CC)C(=O)N[C@@H](Cc1c[nH]cn1)C(=O)N[C@@H](CCC(N)=O)C(=O)NC(C)(C)C(=O)N[C@@H](CCC(=O)O)C(=O)N[C@@H](Cc1ccccc1)C(=O)N[C@H](C(=O)N[C@@H](CCC(=O)O)C(=O)N[C@@H](Cc1ccc(O)cc1)C(=O)N[C@@H](CCCCNC(=O)COCCOCCNC(=O)COCCOCCNC(=O)CC[C@H](NC(=O)CCCCCCCCCCCCCCCCCCC(=O)O)C(=O)O)C(=O)N[C@@H](CC(C)C)C(=O)N[C@@H](CCC(=O)O)C(=O)N[C@@H](CCC(N)=O)C(=O)NCC(=O)N1CCC[C@H]1C(=O)N[C@@H](CO)C(=O)N[C@@H](CO)C(=O)NCC(=O)N[C@@H](C)C(=O)N1CCC[C@H]1C(=O)N1CCC[C@H]1C(=O)N1CCC[C@H]1C(=O)N[C@@H](CO)C(N)=O)C(C)C [Example 106] (H-Y[Aib]EGTFISDYSI[αMeL]LD[Orn]IHQ[Aib]EFVEYK([AEEA-AEEA-γGlu-C20 diacid])LEQGPSSGAPPPS-NH2) | > 910
7 | CC[C@H](C)[C@H](NC(=O)[C@H](CO)NC(=O)[C@H](Cc1ccc(O)cc1)NC(=O)[C@H](CC(=O)O)NC(=O)[C@H](CO)NC(=O)[C@@H](NC(=O)[C@H](Cc1ccccc1)NC(=O)[C@@H](NC(=O)CNC(=O)[C@H](CCC(=O)O)NC(=O)C(C)(C)NC(=O)[C@@H](N)Cc1ccc(O)cc1)[C@@H](C)O)[C@@H](C)CC)C(=O)N[C@@H](CC(C)C)C(=O)N[C@@H](CC(C)C)C(=O)N[C@@H](CC(=O)O)C(=O)N[C@@H](CCCCN)C(=O)N[C@@H](CCCCNC(=O)COCCOCCNC(=O)COCCOCCNC(=O)CC[C@H](NC(=O)CCCCCCCCCCCCCCCCCCC(=O)O)C(=O)O)C(=O)N[C@@H](C)C(=O)N[C@@H](CCC(N)=O)C(=O)NC(C)(C)C(=O)N[C@@H](CC(=O)O)C(=O)N[C@@H](Cc1ccccc1)C(=O)N[C@H](C(=O)N[C@@H](CC(N)=O)C(=O)N[C@@H](Cc1c[nH]c2ccccc12)C(=O)N[C@@H](CC(C)C)C(=O)N[C@@H](CC(C)C)C(=O)N[C@@H](C)C(=O)N[C@@H](CCC(N)=O)C(=O)NCC(=O)N1CCC[C@H]1C(=O)N[C@@H](CO)C(=O)N[C@@H](CO)C(=O)NCC(=O)N[C@@H](C)C(=O)N1CCC[C@H]1C(=O)N1CCC[C@H]1C(=O)N1CCC[C@H]1C(=O)N[C@@H](CO)C(N)=O)C(C)C [Example 8] (H-Y[Aib]EGTFISDYSILLDKK([AEEA-AEEA-γGlu-C20 diacid])AQ[Aib]DFVNWLLAQGPSSGAPPPS-NH2) | 38.1
